For data set [1], the system named is macrophage-mediated LDL oxidation (THP-1 cells). Description: Macrophage-mediated LDL oxidation (THP-1 cells, TBARS). The following applies: for MDA nmol/mg LDL protein: LDL + cell + Cu2+, control 210.6 ± 10.7. The format is cell-based. The method, then:
Then, the resulting cells were cultivated for 3 days and activated by using macrophages sufficiently.
Phellinsin A was dissolved in DMSO and diluted in various concentrations before used in the experiment. In order to catalyze the macrophage-mediated LDL oxidation, 2μL of 0.5 mM CuSO4 was added to the phellinsin A solution. Incubation was then carried out for 24 hours at 37° C. under a humidified atmosphere containing 5% CO2.

Data set [2] relates to LDL. Description: Anti-oxidant activity by monitoring conjugated dienes continuously (LDL oxidation, absorbance at 234 nm). The format is biochemical, human. The following applies: control lag time 44 min. How it is done:
240 μL of LDL (120 μg/mL of protein concentration) separated in Experimental Example 1 was mixed with 2,510 μL of 10 mM phosphate buffer solution and added with 10 μL of phellinsin A solution prepared in 2 kinds of concentration (2 μM and 5 μM), respectively. At this moment, the phellinsin A was utilized after dissolved in DMSO and for a negative control, only solvent was added. For a positive control, probucol was added before use.
Then, 240 μL of 0.125 mM CuSO4 was added to the resulting solution, reacted at 37° C. for 4 hours and coincidently, measured by monitoring the absorbance at 234 nm with a UV-visible spectrophotometer at 10 min intervals.

The next data set can be described thus: DPPH radical scavenging. The format is biochemical. The following applies: for IC50: after 35 min, read-out: IC50 (DPPH free radical scavenging); for Radical scavenging activity (%): 100 μM solutions in methanol. The method, then:
Phellinsin A and 1-diphenyl-2-picryl hydrazyl (DPPH) were dissolved in methanol to be adjusted to 100 μM of concentration, respectively. Then, 1 mL of phellinsin A solution was mixed with 2 mL of DPPH solution and stirred well. […]

The target in data set [3] is T1, chitin synthase 2 of Saccharomyces cerevisiae (Saccharomyces cerevisiae, UniProt P14180).
T1 sequence (P14180 1-963): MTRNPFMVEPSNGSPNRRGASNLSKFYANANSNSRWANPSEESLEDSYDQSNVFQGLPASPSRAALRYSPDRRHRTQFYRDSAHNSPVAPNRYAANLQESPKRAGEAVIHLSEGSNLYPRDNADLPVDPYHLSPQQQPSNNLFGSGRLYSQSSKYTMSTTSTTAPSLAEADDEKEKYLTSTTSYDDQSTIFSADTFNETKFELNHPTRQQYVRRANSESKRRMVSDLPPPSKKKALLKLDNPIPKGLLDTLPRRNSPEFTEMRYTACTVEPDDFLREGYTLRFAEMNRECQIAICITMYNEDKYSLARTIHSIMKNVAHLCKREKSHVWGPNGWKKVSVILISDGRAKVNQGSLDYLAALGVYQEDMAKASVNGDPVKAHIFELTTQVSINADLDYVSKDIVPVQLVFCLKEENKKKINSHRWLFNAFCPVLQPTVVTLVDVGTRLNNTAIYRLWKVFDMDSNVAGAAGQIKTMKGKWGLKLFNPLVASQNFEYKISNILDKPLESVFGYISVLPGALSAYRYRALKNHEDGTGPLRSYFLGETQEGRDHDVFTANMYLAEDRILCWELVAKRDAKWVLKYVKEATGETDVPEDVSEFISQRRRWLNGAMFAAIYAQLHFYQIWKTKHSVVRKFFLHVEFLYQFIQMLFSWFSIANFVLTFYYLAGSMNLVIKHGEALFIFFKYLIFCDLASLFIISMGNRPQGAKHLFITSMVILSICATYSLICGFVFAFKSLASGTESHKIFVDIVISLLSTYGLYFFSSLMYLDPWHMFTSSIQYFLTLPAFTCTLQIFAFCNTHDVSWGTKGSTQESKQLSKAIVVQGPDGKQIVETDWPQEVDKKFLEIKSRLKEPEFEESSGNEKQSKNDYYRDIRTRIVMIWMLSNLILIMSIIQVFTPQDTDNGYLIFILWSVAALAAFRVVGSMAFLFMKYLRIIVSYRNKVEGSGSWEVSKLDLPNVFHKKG
The following applies: J. Antibiotics, 2000, 9: 903-911; cited from earlier work.

Data set [4] deals with LDL. Description: Anti-oxidation to LDL by TBARS method (Cu2+-mediated LDL oxidation). The format is biochemical, human. The following applies: read-out: IC50 (anti-oxidant activity to LDL).
Experimental: The Phellinus sp. PL3 extract and the phellinsin A isolated from the same prepared as described in Examples were examined for their anti-oxidant activity to LDL as follows.
In the present invention, dialdehydes as an oxidative product of unsaturated fatty acids was measured by performing TBARS (thiobarbituric acid-reactive substances) method to investigate the anti-oxidant activities of Phellinus sp. PL3 extract and the phellinsin A isolated from Phellinus sp PL3.
300 mL of human plasma was centrifuged at 100,000×g for 24 hours with an ultracentrifuge to remove a very low density lipoprotein (VLDL)/chylomicron layer floated on the supernatant. The remaining solution was adjusted to 1.063 g/mL of gravity and centrifuged at 100,000×g for 24 hours to separate again 25 mL (1.5-2.5 mg protein/mL) of LDL floated on the supernatant. […]
Then, 10 μL of 0.25 mM CuSO4 was added to the resulting solution, reacted at 37° C. for 4 hours and added with 1 mL of 20% trichloroacetic acid (TCA) solution to stop the reaction. […] The resulting solution was centrifuged at 3,000 rpm for 5 min to separate supernatant and measured the absorbance at 540 nm with a UV-visible spectrophotometer. Finally, the amount of malondialdehyde (MDA) generated by the coloring reaction was determined.
In the experiment using Phellinus sp. […] PL3, the amount of malondialdehyde was quantified by using this standard curve.
The nature of data set [5]: Acute toxicity test of oral administration in mice. As to conditions: both sexes, ICR, mouse, in vivo, po. The format is in vivo. How it is done:
(§1) In order to investigate the acute toxicity of Phellinus sp. PL3 extract or phellinsin A isolated from the same according to the present invention, the experimental procedure is performed as follows.
(§2) 4-week old specific pathogens free (SPF) ICR mice were adopted in 12 of female and 12 of male mice (3 male and female mice/dose group, respectively) and raised in a breeding room under 12 L/12 D of light kept at temperature of 22±3° C. humidity of 55±10%. The experimental mice were adapted for a week before use. Animal fodder (purchased from Cheil Feed Co. Ltd., for mice and rat uses) and water were provided after sterilized and fed freely.
(§3) The Phellinus sp. PL3 extract and phellinsin A isolated from the same prepared in Examples were made to 50 mg/mL of concentration by using 0.55% Tween 80 solvent and orally administered in 0.04 mL (100 mg/kg), 0.2 mL (500 mg/kg) and 0.4 mL (1,000 mg/kg) per 20 g of body weight. […]
(§4) In addition, the experimental mice were killed, anatomized and examined on inner organs with the naked eyes in 7 days of administration. In a day interval from the 1st day, the body weights were measured to examine whether the Phellinus sp. […]

The test system of a further data set is ICR mice. Description: Acute toxicity test of oral administration in mice. The format is in vivo. The following applies: oral 100, 500 and 1,000 mg/kg once, ICR mice, 7 days. The method, then: as §1, §2, §3, §4

With `CC(C)(Sc1cc(C(C)(C)C)c(O)c(C(C)(C)C)c1)Sc1cc(C(C)(C)C)c(O)c(C(C)(C)C)c1` [Probucol, probucol, reference compound], the “MDA nmol/mg LDL protein” value in data set [1] (1 μM) amounted to 209.7 ± 1.7 nmol/mg LDL protein; in data set [1] (2 μM), 199.1 ± 10.7 nmol/mg LDL protein; in data set [1] (5 μM), 157.4 ± 2.4 nmol/mg LDL protein; in data set [1] (10 μM), 145.5 ± 3.9 nmol/mg LDL protein. Also, the “lag time (conjugated dienes)” value is listed as 63 min in the data set with LDL [2] (2 μM) and 70 min with LDL [2] (5 μM, monitored up to 240 min).

Take `Cc1c(C)c2c(c(C)c1O)CCC(C)(C(=O)O)O2` (stereo not shown) [trolox, reference compound]: the IC50 in “DPPH radical scavenging” is 18.6 µM.

On to `O=C1OC(c2ccc(O)c(O)c2)C(C(=O)O)/C1=C\c1ccc(O)c(O)c1` (stereo not shown) [Phellinsin A, phellinsin A], for which the “Radical scavenging activity (%)” value came to 55% in “DPPH radical scavenging” (5 min), 87% in the data set “DPPH radical scavenging” (10 min) and 92% in the data set “DPPH radical scavenging” (30 min). In addition, the values for the IC50 in the data set “DPPH radical scavenging” and with LDL [4] were 1.7 µM and 5.3 µM, respectively. Further, in data set [3], the “inhibition of chitin synthase 2” value is “highly inhibit”. Also, the “MDA nmol/mg LDL protein” value in data set [1] (1 μM) came out at 167.7 ± 6.2 nmol/mg LDL protein; in data set [1] (2 μM), 94.2 ± 4.7 nmol/mg LDL protein; in data set [1] (5 μM), 55.9 ± 2.8 nmol/mg LDL protein; in data set [1] (10 μM) it was 39.4 ± 0.9 nmol/mg LDL protein. In data set [1] (2-10 μM, times stronger than probucol), the “anti-oxidant activity relative to probucol on macrophage-mediated LDL oxidation” value is 2-3.7 times. In data set [5], the LD50 at 7 days is not below 1000 mg/kg. The “toxicity (clinical symptoms, deaths, body weight, blood tests, autopsy)” value in the data set with ICR mice is given as “no toxicity”. In addition, the “lag time (conjugated dienes)” value is on record as 192 min with LDL [2] (2 μM) and more than 240 min in the data set with LDL [2] (5 μM, monitored up to 240 min).

One may read the IC50 as the midpoint of a concentration-inhibition curve. One may read the LD50 as the dose at which mortality reaches 50%.

Source of the values: patent US20060115492A1, “Pharmaceutical composition and health food comprising extract of Phellinus sp. PL3 or phellinsin a isolated from the same as an effective component for prevention and treatment of cardiovascular disease” (Korea Research Institute of Bioscience and Biotechnology, priority 2004, published 2006).
